Measured values reported in US20250179059A1 (The Regents of the University of California, priority 2021, published 2025).
Read-outs that look alike come from different tables or passages of the source.

Key:
[1] = system: human SKM-1 acute myeloid leukemia cells; test: SKM-1 antiproliferation cell-based assay (ATPlite); details: Homo sapiens
Summary of the method: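 Log-phase cells in RPMI 1640/15% FBS were seeded at 34722 cells/mL and exposed for 4 days to nine-concentration DMSO serial dilutions in triplicate. Viability was read as ATP luminescence (ATPlite 1step), and IC50 values came from variable-slope non-linear regression.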

[2] = target: T1, human BRD4 bromodomain II (Homo sapiens, UniProt O60885); test: Bromodomain binding assay (AlphaScreen), BRD4 BDII
T1 construct: human BRD4 bromodomain II [based on Genbank NM_058243, residues 349-460]; host or cells: E. coli
Summary of the method: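 E. coli-expressed N-terminal His6-tagged human BRD4 BDII (residues 349-460) or BDI (residues 44-170) was preincubated 30 min at room temperature with compound (10-point, 3-fold) in pH 7.5 HEPES buffer, 1% DMSO. Displacement of biotinylated tetra-acetylated H4 1-21 peptide was read by AlphaScreen, and IC50 came from curve fitting.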

[3] = SKM-1, 96 h, SKM-1 antiproliferation assay, 4 days, Table C2
[4] = AlphaScreen assay, Table C2, read-out: BRD4 BDII IC50
[5] = SKM-1, SKM-1 antiproliferation assay
[6] = BRD4 BDII AlphaScreen assay, read-out: BRD4 BD2 IC50

| SMILES | GI50 [1, 3] [nM] | IC50 [2, 4] [nM] | GI50 [1, 5] [nM] | IC50 [2, 6] [nM] |
| --- | --- | --- | --- | --- |
| CC(=O)Nc1ccc(-c2cccc(-c3ccnc(N4CC[C@H](O)C4)c3)c2O)cc1F [Example 239, (S)-N-(3-fluoro-2′-hydroxy-3′-(2-(3-hydroxypyrrolidin-1-yl)pyridin-4-yl)-[1,1′-biphenyl]-4-yl)acetamide] | 300 to 3000 | 1 to 10 |  |  |
| CN1CCN(c2ccc(-c3cccc(-c4ccc(C#N)c(N5CCNCC5)c4)c3O)cc2Cl)C1=O [Example 308, 3″-chloro-2′-hydroxy-4″-(3-methyl-2-oxoimidazolidin-1-y1)-3-(piperazin-1-yl)-[1,1′:3′,1″-terphenyl]-4-carbonitrile] | 30 to 300 | 1 to 10 |  |  |
| Cc1cc(-c2cc(C)nc(N3CCNCC3)c2)c(O)c(-c2ccc(N3CCN(C)C3=O)c(Cl)c2)c1 [Example 337, 1-(3-chloro-2′-hydroxy-5′-methyl-3′-(2-methyl-6-(piperazin-1-yl)pyridin-4-yl)-[1,1′-biphenyl]-4-yl)-3-methylimidazolidin-2-one] | 30 to 300 | 1 to 10 |  |  |
| Cc1cc(-c2ccc(-n3ccn(C)c3=O)c(Cl)c2)c(O)c(-c2cccc(N3CCN(C(C)(C)C)CC3)c2)n1 [Example 916, 1-(4-(2-(3-(4-(tert-Butyl)piperazin-1-yl)phenyl)-3-hydroxy-6-methylpyridin-4-yl)-2-chlorophenyl)-3-methyl-1H-imidazol-2(3H)-one] |  |  | 0.3 to 30 | 0.01 to 1 |
| Cn1ccn(-c2ccc(-c3cc(F)cc(-c4ccnc(N5C[C@@H](O)[C@H](O)C5)c4)c3O)cc2Cl)c1=O [Example 726, 1-(3-chloro-3′-(2-((3R,4R)-3,4-dihydroxypyrrolidin-1-yl)pyridin-4-yl)-5′-fluoro-2′-hydroxy-[1,1′-biphenyl]-4-yl)-3-methyl-1H-imidazol-2(3H)-one] | 0.3 to 30 | 0.01 to 1 |  |  |
| CC(=O)Nc1ccc(-c2cccc(-c3ccnc(N4CCC(O)C4)c3)c2O)cc1F (centres unmarked) [Example 199, N-(3-fluoro-2′-hydroxy-3′-(2-(3-hydroxypyrrolidin-1-yl)pyridin-4-yl)-[1,1′-biphenyl]-4-yl)acetamide] | 300 to 3000 | 1 to 10 |  |  |
| CN1CCN(c2ccc(-c3cc(F)cc(-c4cnc(CO)c(N5CCNCC5)c4)c3O)cc2Cl)C1=O [Example 387, 1-(3-chloro-5′-fluoro-2′-hydroxy-3′-(6-(hydroxymethyl)-5-(piperazin-1-yl)pyridin-3-yl)-[1,1′-biphenyl]-4-yl)-3-methylimidazolidin-2-one] | 30 to 300 | 1 to 10 |  |  |
| C[C@@H]1CN(c2cc(-c3cc(F)cc(-c4ccc(-n5ccn(C)c5=O)c(Cl)c4)c3O)ccn2)CCO1 [Example 673, (R)-1-(3-chloro-5′-fluoro-2′-hydroxy-3′-(2-(2-methylmorpholino)pyridin-4-yl)-[1,1′-biphenyl]-4-yl)-3-methyl-1H-imidazol-2(3H)-one] | 30 to 300 | 0.01 to 1 |  |  |
| CC(=O)Nc1ccc(-c2cc(F)cc(-c3cccc(N4CCN(C(C)(C)C)CC4)c3)c2O)nn1 [Example 896] |  |  | 300 to 3000 | > 100 |
| O=C1N(c2ccc(-c3cccc(-c4ccnc(N5CCNCC5)c4)c3O)cc2Cl)CCC12CC2 [Example 341, 5-(3-chloro-2′-hydroxy-3′-(2-(piperazin-1-yl)pyridin-4-yl)-[1,1′-biphenyl]-4-yl)-5-azaspiro[2.4]heptan-4-one] | 300 to 3000 | 10 to 100 |  |  |
| Cn1ccn(-c2ccc(-c3cc(F)cc(-c4ccnc(N5CCNC(C6CC6)C5)c4)c3O)cc2Cl)c1=O (stereo not drawn) [Example 643, 1-(3-chloro-3′-(2-(3-cyclopropylpiperazin-l-yl)pyridin-4-yl)-5′-fluoro-2′-hydroxy-[1,1′-biphenyl]-4-yl)-3-methyl-1H-imidazol-2(3H)-one] | 30 to 300 | 0.01 to 1 |  |  |
| [2H]C([2H])([2H])n1ccn(-c2ccc(-c3cc(F)cc(-c4cnc(OC)c(N5CCN(C(C)(C)C)CC5)c4)c3O)cc2Cl)c1=O [Example 938, 1-(3′-(5-(4-(tert-butyl)piperazin-1-yl)-6-methoxypyridin-3-yl)-3-chloro-5′-fluoro-2′-hydroxy-[1,1′-biphenyl]-4-yl)-3-(methyl-d3)-1,3-dihydro-2H-imidazol-2-one] |  |  | 0.3 to 30 | 1 to 10 |
| Cn1ccn(-c2ccc(-c3cc(F)cc(-c4cccc(-c5cccc(CO)c5)c4)c3O)cc2Cl)c1=O [Example 865] |  |  | 300 to 3000 | 10 to 100 |
| Cn1ccn(-c2ccc(-c3cc(F)cc(-c4ccnc(N5CCC(O)(C6CC6)C5)c4)c3O)cc2Cl)c1=O (centres unmarked) [Example 718, 1-(3-chloro-3′-(2-(3-cyclopropyl-3-hydroxypyrrolidin-1-yl)pyridin-4-yl)-5′-fluoro-2′-hydroxy-[1,1′-biphenyl]-4-yl)-3-methyl-1H-imidazol-2(3H)-one] | 0.3 to 30 | 0.01 to 1 |  |  |
| Cn1ccn(-c2ccc(-c3cc(F)cc(-c4ccnc(N5CCN(CC(=O)O)CC5)c4)c3O)cc2Cl)c1=O [Example 521, 2-(4-(4-(3′-chloro-5-fluoro-2-hydroxy-4′-(3-methyl-2-oxo-2,3-dihydro-1H-imidazol-1-yl)-[1,1′-biphenyl]-3-yl)pyridin-2-yl)piperazin-1-yl)acetic acid] | 30 to 300 | 1 to 10 |  |  |
| C[C@@H]1CN(c2cc(-c3cc(F)cc(-c4ccc(-n5ccn(C)c5=O)c(Cl)c4)c3O)cc(OCCCO)n2)CCN1 [Example 638, (R)-1-(3-chloro-5′-fluoro-2′-hydroxy-3′-(2-(3-hydroxypropoxy)-6-(3-methylpiperazin-1-yl)pyridin-4-yl)-[1,1′-biphenyl]-4-yl)-3-methyl-1H-imidazol-2(3H)-one] | 0.3 to 30 | 0.01 to 1 |  |  |
| CN1CCN(c2ccc(-c3cccc(-c4cccc(N5CCNCC5)c4)c3O)cc2F)C1=O [Example 164, 1-(3-Fluoro-2′-hydroxy-3″-(piperazin-1-yl)-[1,1′:3′,1″-terphenyl]-4-yl)-3-methylimidazolidin-2-one] | 300 to 3000 | 1 to 10 |  |  |
| Cc1cc(-c2cccc(N3CCN(C(C)(C)C)CC3)c2)c(O)c(-c2ccc(-n3ccn(C)c3=O)c(Cl)c2)n1 [Example 917, 1-(4-(4-(3-(4-(tert-Butyl)piperazin-1-yl)phenyl)-3-hydroxy-6-methylpyridin-2-yl)-2-chlorophenyl)-3-methyl-1H-imidazol-2(3H)-one] |  |  | 30 to 300 | 1 to 10 |
| COc1ncc(-c2cc(F)cc(-c3ccc(-n4ccn(C)c4=O)c(Cl)c3)c2O)cc1N1CC2CCC(C1)N2C(C)C [Example 836, 1-(3-chloro-5′-fluoro-2′-hydroxy-3′-(5-(8-isopropyl-3,8-diazabicyclo[3.2.1]octan-3-yl)-6-methoxypyridin-3-yl)-[1,1′-biphenyl]-4-yl)-3-methyl-1H-imidazol-2(3H)-one] | 0.3 to 30 | 1 to 10 |  |  |
| Cc1cc(-c2ccc(-n3ccn(C)c3=O)c(Cl)c2)c(O)c(-c2cc(N3CC[C@H](N)C3)c3nccnc3c2)c1 [Example 575] | 0.3 to 30 | 0.01 to 1 |  |  |
| O=C1CCN1c1ccc(-c2cc(F)cc(-c3ccnc(N4CCNCC4)c3)c2O)cc1Cl [Example 417, 1-(3-chloro-5′-fluoro-2′-hydroxy-3′-(2-(piperazin-1-yl)pyridin-4-yl)-[1,1′-biphenyl]-4-yl)azetidin-2-one] | 300 to 3000 | 1 to 10 |  |  |
| C[C@@H]1CN(c2cncc(-c3cccc(-c4ccc(N5CCCC5=O)c(Cl)c4)c3O)c2)CCN1 [Example 265, (R)-1-(3-chloro-2′-hydroxy-3′-(5-(3-methylpiperazin-1-yl)pyridin-3-yl)-[1,1'-biphenyl]-4-yl)pyrrolidin-2-one] | 30 to 300 | 1 to 10 |  |  |
| O=C1CCCCN1c1ccc(-c2cc(F)cc(-c3ccnc(N4CCNCC4)c3)c2O)cc1F [Example 280, 1-(3,5′-difluoro-2′-hydroxy-3′-(2-(piperazin-1-yl)pyridin-4-yl)-[1,1′-biphenyl]-4-yl)piperidin-2-one] | 300 to 3000 | 10 to 100 |  |  |
| Cn1ccn(-c2ccc(-c3cc(F)cc(-c4ccnc(N5CC(C)(C)C(C)(O)C5)c4)c3O)cc2Cl)c1=O (centres unmarked) [Example 783, 1-(3-chloro-5′-fluoro-2′-hydroxy-3′-(2-(3-hydroxy-3,4,4-trimethylpyrrolidin-1-yl)pyridin-4-yl)-[1,1′-biphenyl]-4-yl)-3-methyl-1H-imidazol-2(3H)-one] | 0.3 to 30 | 0.01 to 1 |  |  |
| Cn1ccn(-c2ccc(-c3cc(F)cc(-c4cc(-c5cn[nH]c5)cc(N5CCNCC5)c4)c3O)cc2Cl)c1=O [Example 571] | 0.3 to 30 | 1 to 10 |  |  |
| Cn1ccn(-c2ccc(-c3cc(F)cc(-c4cccc(N5CC6CNCC6C5)c4)c3O)cc2Cl)c1=O (centres unmarked) [Example 943, 1-(3-chloro-5′-fluoro-3″-(hexahydropyrrolo[3,4-c]pyrrol-2(1H)-yl)-2′-hydroxy-[1,1′:3′,1″-terphenyl]-4-yl)-3-methyl-1,3-dihydro-2H-imidazol-2-one] |  |  | 0.3 to 30 | 1 to 10 |
| CNC1(c2cccc(-c3cc(F)cc(-c4ccc(-n5ccn(C)c5=O)c(Cl)c4)c3O)c2)CC1 [Example 799, 1-(3-chloro-5′-fluoro-2′-hydroxy-3″-(1-(methylamino)cyclopropyl)-[1,1′:3′,1″-terphenyl]-4-yl)-3-methyl-1H-imidazol-2(3H)-one] | 30 to 300 | 0.01 to 1 |  |  |
| CC(C)Oc1cc(-c2cc(F)cc(-c3ccnc(N4CCNCC4)c3)c2O)cc(Cl)c1-n1ccn(C)c1=O [Example 434, 1-(3-chloro-5′-fluoro-2′-hydroxy-5-isopropoxy-3′-(2-(piperazin-1-yl)pyridin-4-yl)-[1,1′-biphenyl]-4-yl)-3-methyl-1H-imidazol-2(3H)-one] | 300 to 3000 | 10 to 100 |  |  |
